Data published in patent US20240050571A1, “CARBORANE HYDROXAMIC ACID MATRIX METALLOPROTEINASE INHIBITORS AND AGENTS FOR BORON NEUTRON CAPTURE THERAPY” (LOYOLA UNIVERSITY OF CHICAGO, priority 2018, published 2024).

Tests used:
MMP-9 = MMP-9 (Homo sapiens (Human), UniProt P14780); experiment: Assay for inhibition of MMP (fluorescence), MMP-9; conditions: read-out: MMP-9 IC50
MMP-2 = MMP-2 (Homo sapiens (Human), UniProt P08253); conditions: read-out: MMP-2 IC50
Chain of MMP-2 (P08253 110-660 limits assumed): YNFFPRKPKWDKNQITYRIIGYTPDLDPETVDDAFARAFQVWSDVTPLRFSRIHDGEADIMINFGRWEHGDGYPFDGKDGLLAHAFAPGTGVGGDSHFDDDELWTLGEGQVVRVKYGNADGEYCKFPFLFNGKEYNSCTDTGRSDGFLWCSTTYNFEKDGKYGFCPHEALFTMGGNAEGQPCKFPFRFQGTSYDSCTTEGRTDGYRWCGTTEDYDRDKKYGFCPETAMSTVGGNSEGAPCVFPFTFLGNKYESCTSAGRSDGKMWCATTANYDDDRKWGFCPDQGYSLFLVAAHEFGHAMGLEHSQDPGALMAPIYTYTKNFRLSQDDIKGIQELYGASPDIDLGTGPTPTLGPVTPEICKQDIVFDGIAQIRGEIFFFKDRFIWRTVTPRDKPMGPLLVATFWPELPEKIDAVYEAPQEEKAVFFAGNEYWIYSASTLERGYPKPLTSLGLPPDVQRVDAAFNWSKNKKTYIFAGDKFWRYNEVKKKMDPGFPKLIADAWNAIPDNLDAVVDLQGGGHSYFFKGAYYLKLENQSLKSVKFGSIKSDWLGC

Chain of MMP-9 (P14780 107-707 limits assumed): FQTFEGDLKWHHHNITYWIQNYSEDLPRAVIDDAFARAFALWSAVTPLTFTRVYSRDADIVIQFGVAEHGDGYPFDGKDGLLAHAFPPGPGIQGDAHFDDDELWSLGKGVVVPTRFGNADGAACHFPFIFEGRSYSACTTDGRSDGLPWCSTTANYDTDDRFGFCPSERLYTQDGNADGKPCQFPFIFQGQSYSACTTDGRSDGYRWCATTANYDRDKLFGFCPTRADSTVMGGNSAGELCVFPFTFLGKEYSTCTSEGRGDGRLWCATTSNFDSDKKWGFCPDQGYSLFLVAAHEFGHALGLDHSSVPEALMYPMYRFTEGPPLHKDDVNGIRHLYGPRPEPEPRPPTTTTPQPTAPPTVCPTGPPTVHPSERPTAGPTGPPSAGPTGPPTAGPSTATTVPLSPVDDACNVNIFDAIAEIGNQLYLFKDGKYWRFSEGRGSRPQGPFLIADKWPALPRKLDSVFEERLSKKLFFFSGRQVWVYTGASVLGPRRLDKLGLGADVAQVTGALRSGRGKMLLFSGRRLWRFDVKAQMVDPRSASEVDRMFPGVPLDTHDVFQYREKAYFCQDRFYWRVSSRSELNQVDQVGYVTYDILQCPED

COc1ccc(S(=O)(=O)N(CC(=O)NO)CC(C)C)cc1 [NNGH, N-Isobutyl-N-(4-methoxyphenylsulfonyl)glycyl hydroxamic acid]
IC50 (MMP-9): 5 nM
IC50 (MMP-2): 2.7 nM
